Series [1] concerns Rattus norvegicus.
The test system of series [2] is Aphidius rhopalosiphi. The following applies: chronic/long-term.
Series [3] concerns Colinus virginianus.
Series [4] deals with Pimephales promelas. The note with it: chronic/long-term; duration: 36 days; growth.
For series [5], the system named is Typhlodromus pyri. The following applies: chronic/long-term.
In series [6] the test system is Lepomis macrochirus. The note with it: acute; duration: 96 hours; mortality.
The test system of series [7] is Anas platyrhynchos.
Series [8] deals with Tagia sp.
Series [9] relates to Daphnia magna. The following applies: chronic/long-term; duration: 21 days; reproduction.
For series [10], the system named is Apis mellifera. The note with it: acute; duration: 48 hours; dermal; mortality.

`Nc1ccc(OC(F)(F)F)cc1` [4-Trifluoromethoxyaniline] showed an NOAEL in series [1] (short-term, duration: 6 days) of 0.5 mg/kg-day.

On to `O=C(NC(=O)c1ccccc1Cl)Nc1ccc(OC(F)(F)F)cc1` [Triflumuron], for which the LD50 in series [1] (acute, oral, mortality) was over 5000 mg/kg-day; in [3] (acute, oral, mortality), 561 mg/kg-day; in series [10], over 200 µg/piece. This molecule had an NOEL in series [1] (chronic) of 142 mg/kg-day. Further, the no-observed-adverse-effect level (NOAEL) in [1] (chronic, duration: 2 years, hematological) worked out at 0.82 mg/kg-day; in series [1] (subchronic, duration: 90 days, oral, hematological), 3.6 mg/kg-day. The LEL in series [2] (mortality) is 300 g/ha; in [2] (reproduction), 300 g/ha; in series [5] (duration: 7 days, mortality) it was 384 g/ha; in series [5] (reproduction) it was 384 g/ha. The LC50 was over 805 mg/kg-day in series [3] (acute, oral, diet, mortality); over 0.0208 µg/mL in series [6]; 180 mg/kg-day in series [7] (short-term, oral, feed, mortality); over 500 mg/kg in series [8] (acute, duration: 14 days, mortality). The NOEC is 1.65 mg/kg-day in series [3] (reproduction developmental); at least 0.0228 mg/L in series [4]; 6.9 mg/kg-day in series [7] (reproductive); over 378 mg/kg in series [8] (chronic/long-term, duration: 56 days, reproduction); 3.2e-05 mg/L in [9].

The term NOAEL denotes the highest tested level that showed no adverse finding.
